From patent publication US11964971B2, “Methods and compositions for modulating splicing” (Skyhawk Therapeutics, Inc., priority 2019, dated 2024)

Tests used:
SMN protein = SMN protein assay (MSD) in SMA patient fibroblasts (GM03813); format: cell-based, human
Description: Compounds are tested on spinal muscular atrophy (SMA) patient fibroblasts (GM03813, Coriell) at doses ranging from 2.5 μM to 0.6 nM. 7000 cells/well are seeded in 96-well plates. Compounds are incubated for 48 hours and the cells were lysed with 100 μL of lysis buffer. 20 μL of lysate is used for SMN protein measurement by Mesoscale Discovery (MSD) assay developed by PharmOptima (Michigan). A standard curve prepared with SMN protein ranging from […] is used in each MSD plate to calculate the absolute SMN protein amount in each sample.

[1] = tested on: MDR1-MDCK cell monolayers; conditions: dog, MDCK-MDR1, 120 min, 5 μM, pH 7.4
Description: (§1) Experimental Procedure: MDR1-MDCK cell monolayers are grown to confluence on collagen-coated, microporous membranes in 12-well assay plates. The permeability assay buffer is Hanks' balanced salt solution containing 10 mM HEPES and 15 mM glucose at a pH of 7.4. The buffer in the receiver chamber also contained 1% bovine serum albumin. The dosing solution concentration is 5 μM of test article in the assay buffer. Cell monolayers are dosed on the apical side (A-to-B) or basolateral side (B-to-A) and incubated at 37° C. with 5% CO2 in a humidified incubator. Samples are taken from the donor and receiver chambers at 120 minutes. Each determination is performed in duplicate. The flux of lucifer yellow is also measured post-experimentally for each monolayer to ensure no damage was inflicted to the cell monolayers during the flux period. All samples are assayed by LC-MS/MS using electrospray ionization.
(§2) Analytical Method: Liquid Chromatography • Column: Waters ACQUITY UPLC BEH Phenyl 30×2.1 mm, 1.7 μm • M.P. Buffer: 25 mM ammonium formate buffer, pH 3.5 • Aqueous Reservoir (A): 90% water, 10% buffer • Organic Reservoir (B): 90% acetonitrile, 10% buffer • Flow Rate: 0.7 mL/minute • Gradient Program:
(§3) • Total Run Time: 1.00 minute • Autosampler: 2 μL injection volume • Wash1: water/methanol/2-propanol:1/1/1; with 0.2% formic acid • Wash2: 0.1% formic acid in water • Brain Penetration • Potential Classification: A-B Papp≥3.0 and Efflux Ratio<3.0: High • A-B Papp≥3.0 and 10>Efflux Ratio≥3.0: Moderate • A-B Papp≥3.0 and Efflux Ratio≥10: Low • A-B Papp<3.0: Low

MDR1 = assay: in vitro; conditions: dog; for Papp A→B at 120 min, 5 μM: MDCK-MDR1, pH 7.4, MDCK-MDR1: Papp A-B (10^−6, cm/s); for Papp B→A at 120 min, 5 μM: MDCK-MDR1, pH 7.4, MDCK-MDR1: Papp B-A (10^−6, cm/s)
Description: as §1, §2, §3

MDR1 (P-gp) = assay: MDCK-MDR1 permeability assay, blood-brain-barrier penetration potential; conditions: dog, MDCK-MDR1, pH 7.4, MDCK-MDR1 Efflux Ratio
Description: as §1, §2, §3

| Structure (SMILES) | EC50 (SMN protein) [nM] | MDCK-MDR1: % Recov A-B (%) [1] [%] | MDCK-MDR1: % Recov B-A (%) [1] [%] | Papp A→B at 120 min, 5 μM (MDR1) [×10⁻⁶ cm/s] | Papp B→A at 120 min, 5 μM (MDR1) [×10⁻⁶ cm/s] | efflux ratio at 120 min, 5 μM (MDR1 (P-gp)) |
| --- | --- | --- | --- | --- | --- | --- |
| Oc1cc(-c2cn[nH]c2)ccc1-c1cnc(O[C@H]2CC3CC[C@@H](N3)[C@H]2F)cn1 (single isomer, unassigned) [Compound 1E1] | 501 to 10000 | 68 | 82 | 8.22 | 33.4 | 4 |
| Oc1cc(-c2cn[nH]c2)ccc1-c1cnc(O[C@@H]2C[C@H]3CCC(N3)[C@@H]2F)cn1 (single isomer, unassigned) [Compound 1E2] | 501 to 10000 | 66 | 79 | 7.49 | 40.1 | 5 |
| CN(c1cnc(-c2ccc(-c3cnn(C)c3)cc2O)cn1)[C@@H]1[C@H](F)[C@H]2CCC(N2)[C@@H]1F (single isomer, unassigned) [Compound 4E2] | 16 to 50 | 44 | 63 | 4.94 | 27.9 | 6 |
| CN(c1cnc(-c2ccc(-c3cn[nH]c3)cc2O)cn1)[C@@H]1C[C@H]2CCCC(N2)[C@@H]1F (single isomer, unassigned) [Compound 6E1] | 501 to 10000 | 76 | 69 | 4.58 | 42.3 | 9 |
| CN(c1cnc(-c2ccc(-c3cn[nH]c3)cc2O)cn1)[C@@H]1C[C@H]2CCC(N2)[C@@H]1F (single isomer, unassigned) [Compound 8E1] | 501 to 10000 | 72 | 71 | 3.58 | 33.3 | 9 |
| CN(c1cnc(-c2ccc(-c3cn[nH]c3)cc2O)cn1)[C@H]1CC2N[C@@H](C1)CC2(F)F (single isomer, unassigned) [Compound 9E1] | 501 to 10000 | 60 | 77 | 17.9 | 51.6 | 3 |
| CN(c1cnc(-c2ccc(-c3cn[nH]c3)cc2O)cn1)[C@H]1CC2CC(F)(F)[C@H](C1)N2 (single isomer, unassigned) [Compound 9E2] | 16 to 50 | 71 | 90 | 19.9 | 55.4 | 3 |
| CN(c1cnc(-c2ccc(-c3cnn(C)c3)cc2O)cn1)[C@@H]1CC2CC(F)(F)[C@@H](C1)N2 (single isomer, unassigned) [Compound 10E1] | 501 to 10000 | 59 | 86 | 22.9 | 26.1 | 1 |
| CN(c1cnc(-c2ccc(-c3cnn(C)c3)cc2O)cn1)[C@@H]1CC2N[C@H](C1)CC2(F)F (single isomer, unassigned) [Compound 10E2] | 101 to 500 | 64 | 67 | 28.7 | 23.7 | 1 |
| Oc1cc(-n2ccnn2)c(F)cc1-c1cnc(N(C2CC2)[C@@H]2CC3CC[C@H](N3)[C@@H]2F)cn1 (single isomer, unassigned) [Compound 11E1] | 501 to 10000 | 74 | 83 | 5.25 | 35.9 | 7 |
| Oc1cc(-n2ccnn2)c(F)cc1-c1cnc(N(C2CC2)[C@H]2C[C@@H]3CCC(N3)[C@H]2F)cn1 (single isomer, unassigned) [Compound 11E2] | 501 to 10000 | 69 | 72 | 6.21 | 41.1 | 7 |
| CN(c1cnc(-c2cc(F)c(-c3ccn(C)c(=O)c3)cc2O)cn1)[C@@H]1CC2CCC[C@H](N2)[C@@H]1F (single isomer, unassigned) [Compound 12E1] | 101 to 500 | 78 | 83 | 1.99 | 54.9 | 28 |
| CN(c1cnc(-c2cc(F)c(-c3ccn(C)c(=O)c3)cc2O)cn1)[C@@H]1CC2CC[C@H](N2)[C@@H]1F (single isomer, unassigned) [Compound 13E1] | 101 to 500 | 454 |  |  | 106 | 49 |
| CN(C)C(=O)c1cc(O)c(-c2cnc(N(C)[C@@H]3CC4CC[C@H](N4)[C@@H]3F)cn2)cc1F (single isomer, unassigned) [Compound 14E1] | 501 to 10000 | 79 | 84 | 0.75 | 39.1 | 52 |
| CN(C)C(=O)c1cc(O)c(-c2cnc(N(C)[C@H]3C[C@@H]4CCC(N4)[C@H]3F)cn2)cc1F (single isomer, unassigned) [Compound 14E2] | 501 to 10000 | 87 | 88 | 0.91 | 59.1 | 65 |
| CNC(=O)c1cc(O)c(-c2cnc(N(C)[C@@H]3CC4CC[C@H](N4)[C@@H]3F)cn2)cc1F (single isomer, unassigned) [Compound 15E1] | 501 to 10000 | 86 | 97 | 2.74 | 64.4 | 24 |
| CNC(=O)c1cc(O)c(-c2cnc(N(C)[C@H]3C[C@@H]4CCC(N4)[C@H]3F)cn2)cc1F (single isomer, unassigned) [Compound 15E2] | 501 to 10000 | 85 | 86 | 2.66 | 68.8 | 26 |
| CN(c1cnc(-c2cc(F)c(-c3cnn(C)c3)cc2O)cn1)[C@H]1C[C@@H]2CCC(N2)[C@H]1F (single isomer, unassigned) [Compound 17E1] | 0.01 to 15 | 31 | 74 | 4.22 | 18.6 | 4 |
| CN(c1cnc(-c2cc3ncn(CC(F)(F)F)c(=O)c3cc2O)cn1)[C@@H]1CC2CCC[C@H](N2)[C@@H]1F (single isomer, unassigned) [Compound 18E1] | 501 to 10000 | 78 | 86 | 0.92 | 65.1 | 71 |
| CN(c1cnc(-c2cc3ccc(OCF)nc3cc2O)cn1)[C@@H]1CC2CC[C@H](N2)[C@@H]1F (single isomer, unassigned) [Compound 19E1] | 501 to 10000 | 24 | 57 | 2.13 | 18.6 | 9 |
| CN(c1cnc(-c2cc3ccc(OCF)nc3cc2O)cn1)[C@H]1C[C@@H]2CCC(N2)[C@H]1F (single isomer, unassigned) [Compound 19E2] | 501 to 10000 | 28 | 62 | 2.81 | 17.1 | 6 |
| CN(c1cnc(-c2cc3oc(C(=O)N4CCC4)cc3cc2O)cn1)[C@@H]1CC2CC[C@H](N2)[C@@H]1F (single isomer, unassigned) [Compound 20E1] | 501 to 10000 | 83 | 101 | 2.71 | 56.4 | 21 |
| CN(c1cnc(-c2cc3oc(C(=O)N4CCC4)cc3cc2O)cn1)[C@H]1C[C@@H]2CCC(N2)[C@H]1F (single isomer, unassigned) [Compound 20E2] | 501 to 10000 | 75 | 79 | 0.94 | 41.9 | 45 |
| CN(c1cnc(-c2cc(F)c(C3=CC(F)NC(F)=C3)cc2O)cn1)[C@H]1C[C@]2(C)CC[C@@](C)(N2)[C@H]1F (single isomer, unassigned) [Compound 63E2] | 501 to 10000 | 19 | 24 | 0.58 | 0.22 |  |
| Cc1noc(-c2ccc(-c3cnc(N(C)[C@@H]4CC5CC[C@H](N5)[C@@H]4F)cn3)c(O)c2)n1 (single isomer, unassigned) [Compound 70E1] | 501 to 10000 |  |  |  |  |  |
| Cc1noc(-c2ccc(-c3cnc(N(C)[C@H]4C[C@@H]5CCC(N5)[C@H]4F)cn3)c(O)c2)n1 (single isomer, unassigned) [Compound 70E2] | 101 to 500 |  |  |  |  |  |
| CN(c1cnc(-c2ccc3ccncc3c2O)cn1)[C@H]1C[C@@H]2CCC(N2)[C@H]1F (single isomer, unassigned) [Compound 71E2] | 16 to 50 |  |  |  |  |  |
